Assay results taken from publication PMC9093066 (Bioorganic & Medicinal Chemistry, 2022).

Tests used:
SARS-CoV-2 Mac1 [1] = biological target: T1, SARS-CoV-2 Mac1 (Severe acute respiratory syndrome coronavirus 2, UniProt P0DTD1); assay type: binding; conditions: for SARS CoV2 Mac1 Alpha (IC50): AlphaScreen ADP-ribose binding, IC50 ± SD of three replicates
SARS-CoV-2 Mac1 [2] = biological target: T1, SARS-CoV-2 Mac1; assay type: binding; conditions: DSF, 300 µM compound, ± SD of three replicates
Mac1 = conditions: cited from earlier work
[3] = test system: panel of MAR binding proteins from viruses and humans
[4] = biological target: T2, NudF ADP-ribose pyrophosphatase (Escherichia coli, UniProt Q93K97); assay: NudF-mediated counterscreen of ADPr-Glo assay; assay type: biochemical; conditions: NudF only with free ADP-ribose
T2 sequence (Q93K97 1-209): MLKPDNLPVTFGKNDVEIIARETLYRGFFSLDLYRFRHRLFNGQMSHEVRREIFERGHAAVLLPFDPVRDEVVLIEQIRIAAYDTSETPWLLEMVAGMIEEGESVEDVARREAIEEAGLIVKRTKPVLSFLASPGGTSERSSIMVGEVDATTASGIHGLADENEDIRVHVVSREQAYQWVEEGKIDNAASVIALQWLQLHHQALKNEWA

SARS-CoV-2 Mac1 [5] = biological target: T1, SARS-CoV-2 Mac1; assay type: biochemical; conditions: ADPr-Glo dose response, n = 2

With `c1ccc2c(CCNc3ncnc4[nH]ccc34)c[nH]c2c1` [Compound 20, N-(2-(1H-indol-3-yl)ethyl)-7H-pyrrolo[2,3–d]pyrimidin-4-amine] the “fold less potent than 15c” value (SARS-CoV-2 Mac1 [1]) was “approximately 7 fold”.

For `O=C(O)CNc1ncnc2[nH]ccc12` [Compound 15d, (7H-pyrrolo[2,3–d]pyrimidin-4-yl)glycine], the “SARS CoV2 Mac1 Alpha (IC50)” value (SARS-CoV-2 Mac1 [1]) was “did not demonstrate any inhibitory effect”.

In the case of `O=C(O)C1CCN(c2ncnc3[nH]ccc23)CC1` [Compound 6h, 1-(7H-pyrrolo[2,3–d]pyrimidin-4-yl)piperidine-4-carboxylic acid], the “fold improvement of potency over the initial fragment” value (SARS-CoV-2 Mac1 [1]; vs fragment 1) was about 10 fold and the “Δ Tm (°C) @300 µM” value (SARS-CoV-2 Mac1 [2]) was over 1 °C.

For `Cc1ccc(C(=O)Nc2ccc(S(=O)(=O)O)c3cc(S(=O)(=O)O)cc(S(=O)(=O)O)c23)cc1NC(=O)c1cccc(NC(=O)Nc2cccc(C(=O)Nc3cc(C(=O)Nc4ccc(S(=O)(=O)O)c5cc(S(=O)(=O)O)cc(S(=O)(=O)O)c45)ccc3C)c2)c1` [Suramin], the “stabilization of the protein in DSF assay” value (Mac1) is given as “concentration dependent stabilization of the protein”.

In the case of `COC(=O)[C@@H]1CN(c2ncnc3[nH]ccc23)CCN1.O=C(O)C(F)(F)F` [Compound 10a, Methyl (S)-4-(7H-pyrrolo[2,3–d]pyrimidin-4-yl)piperazine-2-carboxylate ●TFA], the “SARS CoV2 Mac1 Alpha (IC50)” value (SARS-CoV-2 Mac1 [1]) was “Inactive”.

In the case of “Methyl (R)-4-(7H-pyrrolo[2,3–d]pyrimidin-4-yl)piperazine-2-carboxylate ●TFA [Compound 10b]”, the “SARS CoV2 Mac1 Alpha (IC50)” value (SARS-CoV-2 Mac1 [1]) was “Inactive”.

For `CC(C)C[C@H](Nc1ncnc2[nH]ccc12)C(=O)O` [Compound 15b, (7H-pyrrolo[2,3–d]pyrimidine-4-yl)-L-leucinate], the “SARS CoV2 Mac1 Alpha (IC50)” value (SARS-CoV-2 Mac1 [1]) was “completely inactive”.

For `CCOC(=O)[C@H](CC(C)C)Nc1ncnc2[nH]ccc12` [Compound 14b, Ethyl (7H-pyrrolo[2,3–d]pyrimidine-4-yl)-L-leucinate], the “SARS CoV2 Mac1 Alpha (IC50)” value (SARS-CoV-2 Mac1 [1]) was “completely inactive”.

With `O=C(O)[C@H](Cc1c[nH]c2ccccc12)Nc1ncnc2[nH]ccc12` [Compound 15c, (7H-pyrrolo[2,3–d]pyrimidin-4-yl)-L-tryptophan] the “selectivity in panel of ADP-ribose binding proteins” value [3] was “remarkably selective for coronavirus macrodomains”, the “activity in NudF-mediated counterscreen” value [4] was “Neither compound demonstrated any activity” and the “inhibition of Mac1 enzyme (ADP-ribosylhydrolase) activity” value (SARS-CoV-2 Mac1 [5]) was “dose-dependent inhibition”.

With `O=C(O)[C@@H]1CCC[C@@H]1Nc1ncnc2[nH]ccc12` [Compound 19, (1R, 2S)-2-((7H-pyrrolo[2,3–d]pyrimidin-4-yl)amino)cyclopentane-1-carboxylic acid] the “Δ Tm (°C) @300 µM” value (SARS-CoV-2 Mac1 [2]) was over 1 °C.

For `O=C(O)C1CCCN(c2ncnc3[nH]ccc23)C1` (centres unmarked) [Compound 6g, 1-(7H-pyrrolo[2,3–d]pyrimidin-4-yl)piperidine-3-carboxylic acid], the “activity in NudF-mediated counterscreen” value [4] was “Neither compound demonstrated any activity”.
